According to ChEMBL document CHEMBL5154856, “Targeting the tumor microenvironment by an enzyme-responsive prodrug of tubulin destabilizer for triple-negative breast cancer therapy with high safety” (Eur J Med Chem, 2022):

Experiments:
[1] = tested on: SK-OV-3; assay: Antiproliferative activity against human SK-OV-3 cells assessed as inhibition of cell growth incubated for 48 hrs in presence of beta-glucuronidase by MTT assay; format: functional, cell-based; conditions: SK-OV-3, 48 h
[2] = Toxicity in nude mouse assessed as effect on lymphocyte level at 40 mg/kg, iv administered qd for 3 days (reference value: 60.90 %); format: organism-based; conditions: in vivo, 72 h, time 3 day
[3] = Acute toxicity in BALB/c mouse assessed as animal survival at […], iv administered as single dose measured after 14 days; format: organism-based; conditions: in vivo, time 14 day
[4] = Metabolic stability in rat liver microsomes assessed as parent compound remaining at 10 mM measured up to 60 mins in presence of NADPH by LC-MS/MS analysis; format: ADME, Microsome; conditions: read-out: Stability
[5] = tested on: MCF7; assay: Antiproliferative activity against human MCF7 cells assessed as inhibition of cell growth incubated for 48 hrs in absence of beta-glucuronidase by MTT assay; format: functional, cell-based; conditions: MCF7, 48 h
[6] = Toxicity in nude mouse xenografted with human MDA-MB-231 cells assessed as pathological changes in liver at 20 to 40 mg/kg, iv administered every 2 days for 14 days by H and E staining based assay; format: organism-based; conditions: in vivo, 336 h, dose 20-40 mg/kg, time 14 day
[7] = tested on: MDA-MB-231; assay: Antitumour activity against human MDA-MB-231 cells xenografted in nude mouse assessed as tumor growth inhibition at 40 mg/kg, iv administered every 2 days for 14 days; format: functional; conditions: MDA-MB-231, 336 h, time 14 day, read-out: TGI
[8] = Metabolic stability in rat liver microsomes assessed as intrinsic clearance in microsomes at 10 mM measured up to 60 mins in presence of NADPH by LC-MS/MS analysis; format: ADME, Microsome; conditions: read-out: CLH
[9] = Toxicity in nude mouse assessed as effect on globulin level in serum at 40 mg/kg, iv administered qd for 3 days (reference value: 16.1 g/L); format: organism-based; conditions: in vivo, 72 h, time 3 day
[10] = Toxicity in nude mouse assessed as ratio of effect on albumin level to effect on globulin level in serum at 40 mg/kg, iv administered qd for 3 days (reference value: 1.94); format: organism-based; conditions: in vivo, 72 h, time 3 day
[11] = Metabolic stability in rat liver microsomes assessed as half life at 10 mM measured up to 60 mins in presence of NADPH by LC-MS/MS analysis; format: ADME, Microsome
[12] = Toxicity in nude mouse assessed as effect on total bilirubin level in serum at 40 mg/kg, iv administered qd for 3 days (reference value: 3.3 micromol/L); format: organism-based; conditions: in vivo, 72 h, time 3 day
[13] = Toxicity in nude mouse assessed as effect on platelet count at 40 mg/kg, iv administered qd for 3 days (reference value: 21 10^9/L); format: organism-based; conditions: in vivo, 72 h, time 3 day

COc1ccc([C@H]2[C@H](CO)C(=O)N2c2cc(OC)c(OC)c(OC)c2)cc1OCc1ccc(O[C@@H]2O[C@H](C(=O)O)[C@@H](O)[C@H](O)[C@H]2O)cc1
IC50 [1]: 0.0141 µM | Activity [2]: 57.2% | survival at 336 h [3]: 75% | remaining at 1 h [4]: 74.9% | IC50 [5]: > 50 µM | Activity [6]: Non-Toxic | inhibition in vivo at 40 mg/kg [7]: 63% | microsomal CLint [8]: < 9.6 µL/min/mg | Activity [9]: 16 g/L | Ratio [10]: 1.84 | half-life [11]: > 2.42 h | Activity [12]: 3.9 µmol/L | Activity [13]: 43 10^9/L
